Literature values in patent US8975284B2, “Co-solvent compositions and methods for improved delivery of dantrolene therapeutic agents” (US WorldMeds LLC, priority 2007, dated 2015).
Like-named read-outs stand apart in the source and are kept apart here.

Key:
[1] = not given; remark: listed apart in the source
[2] = not given; remark: listed apart in the source

| SMILES | pKa | pKa [1] | solubility of free acid form [2] |
| --- | --- | --- | --- |
| CC(C)(C)O [TBA, Tertiary Butyl Alcohol] | 15.37 ± 0.29 | – | – |
| O=C1CN(/N=C/c2ccc(-c3ccc([N+](=O)[O-])cc3)o2)C(=O)[N-]1.[Na+] [Dantrolene sodium, 1-[[5-(p-nitrophenyl)furfurylidene]-amino]hydantoin sodium salt] | – | 7.4 | – |
| O=C1CN(N=Cc2ccc(-c3ccc([N+](=O)[O-])cc3)o2)C(=O)N1 [dantrolene, 1-[5-(p-nitrophenyl)furfurylideneamino]hydantoin] | – | about 7.5 | totally insoluble |
